Experiments:
[1] = biological target: Ribosomal protein S6 kinase alpha-1 (Homo sapiens, UniProt Q15418); experiment: Selectivity interaction (KinomeScan (DiscoverX)) EUB0000045b RPS6KA1; settings: at 1 µM
[2] = biological target: T1, Mitogen-activated protein kinase 15 (Homo sapiens) (UniProt Q8TD08); experiment: Selectivity interaction (KinomeScan (DiscoverX)) EUB0000666a MAPK15; settings: at 10 µM
T1 sequence (whole entry): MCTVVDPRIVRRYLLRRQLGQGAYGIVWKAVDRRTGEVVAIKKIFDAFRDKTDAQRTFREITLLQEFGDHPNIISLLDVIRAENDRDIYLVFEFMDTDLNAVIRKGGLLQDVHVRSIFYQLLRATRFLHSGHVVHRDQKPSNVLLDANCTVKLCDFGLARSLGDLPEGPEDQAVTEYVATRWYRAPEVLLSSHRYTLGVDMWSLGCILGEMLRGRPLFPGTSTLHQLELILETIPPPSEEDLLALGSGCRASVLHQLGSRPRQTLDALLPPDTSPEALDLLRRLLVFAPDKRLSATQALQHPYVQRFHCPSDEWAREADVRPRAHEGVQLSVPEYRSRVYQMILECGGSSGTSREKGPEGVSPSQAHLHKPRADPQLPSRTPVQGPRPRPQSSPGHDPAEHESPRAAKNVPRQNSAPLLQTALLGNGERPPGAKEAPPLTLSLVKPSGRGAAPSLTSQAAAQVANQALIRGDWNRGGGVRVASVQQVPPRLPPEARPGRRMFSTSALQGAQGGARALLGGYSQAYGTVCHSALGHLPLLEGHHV

[3] = biological target: T2, Gamma-aminobutyric acid receptor subunit alpha-1 (Homo sapiens) (UniProt P14867); experiment: Selectivity interaction (Eurofins CEREP Diversity Profile (receptors and ion channels)) EUB0000279b GABRA1; settings: at 10 µM
T2 sequence (whole entry): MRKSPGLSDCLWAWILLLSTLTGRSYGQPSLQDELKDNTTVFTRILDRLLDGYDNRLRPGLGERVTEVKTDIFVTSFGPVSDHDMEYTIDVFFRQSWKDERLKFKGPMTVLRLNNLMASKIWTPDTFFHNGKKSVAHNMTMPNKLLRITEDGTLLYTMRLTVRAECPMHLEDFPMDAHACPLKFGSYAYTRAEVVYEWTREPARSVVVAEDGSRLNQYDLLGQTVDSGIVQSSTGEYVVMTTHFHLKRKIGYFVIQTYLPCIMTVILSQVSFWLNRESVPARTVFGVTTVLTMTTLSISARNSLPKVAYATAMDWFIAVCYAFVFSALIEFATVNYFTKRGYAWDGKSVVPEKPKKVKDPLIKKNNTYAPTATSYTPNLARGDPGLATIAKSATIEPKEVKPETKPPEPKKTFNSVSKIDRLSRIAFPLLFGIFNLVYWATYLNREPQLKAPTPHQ

[4] = biological target: 5-hydroxytryptamine receptor 2B (Homo sapiens, UniProt P41595); experiment: Selectivity interaction (Safety Panel 44tm (Eurofins)) EUB0000162b HTR2B; settings: at 10 µM
[5] = biological target: Tyrosine-protein kinase Blk (Homo sapiens) (UniProt P51451); experiment: Selectivity interaction (KinomeScan (DiscoverX)) EUB0001049a BLK; settings: at 1 µM
[6] = biological target: T3, Protein kinase C iota type (Homo sapiens) (UniProt P41743); experiment: Selectivity interaction (Millipore kinase profiler) EUB0000124b PRKCI; settings: at 10 µM
T3 sequence (whole entry): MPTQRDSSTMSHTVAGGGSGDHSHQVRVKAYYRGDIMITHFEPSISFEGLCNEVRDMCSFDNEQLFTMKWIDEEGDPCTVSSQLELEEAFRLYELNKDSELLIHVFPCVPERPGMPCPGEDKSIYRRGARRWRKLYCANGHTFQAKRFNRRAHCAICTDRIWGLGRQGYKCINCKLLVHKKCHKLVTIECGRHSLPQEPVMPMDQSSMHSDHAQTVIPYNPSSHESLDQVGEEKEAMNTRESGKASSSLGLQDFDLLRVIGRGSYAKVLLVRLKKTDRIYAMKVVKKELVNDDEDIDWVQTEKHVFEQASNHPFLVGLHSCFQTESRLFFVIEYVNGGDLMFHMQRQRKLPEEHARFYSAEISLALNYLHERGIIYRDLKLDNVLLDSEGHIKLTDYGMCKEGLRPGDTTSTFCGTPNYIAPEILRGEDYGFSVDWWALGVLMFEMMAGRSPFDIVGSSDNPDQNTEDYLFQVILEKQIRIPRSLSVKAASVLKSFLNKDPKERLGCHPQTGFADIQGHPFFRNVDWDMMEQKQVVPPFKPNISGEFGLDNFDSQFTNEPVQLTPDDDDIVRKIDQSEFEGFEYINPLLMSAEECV

[7] = biological target: Ribosomal protein S6 kinase alpha-4 (Homo sapiens) (UniProt O75676); experiment: Selectivity interaction (KinaseProfiler screening (Millipore)) EUB0000601a RPS6KA4; settings: at 3 µM
[8] = biological target: T4, Inhibitor of nuclear factor kappa-B kinase subunit alpha (Homo sapiens) (UniProt O15111); experiment: Selectivity interaction (KinomeScan (DiscoverX)) EUB0000607a CHUK; settings: at 10 µM
T4 sequence (whole entry): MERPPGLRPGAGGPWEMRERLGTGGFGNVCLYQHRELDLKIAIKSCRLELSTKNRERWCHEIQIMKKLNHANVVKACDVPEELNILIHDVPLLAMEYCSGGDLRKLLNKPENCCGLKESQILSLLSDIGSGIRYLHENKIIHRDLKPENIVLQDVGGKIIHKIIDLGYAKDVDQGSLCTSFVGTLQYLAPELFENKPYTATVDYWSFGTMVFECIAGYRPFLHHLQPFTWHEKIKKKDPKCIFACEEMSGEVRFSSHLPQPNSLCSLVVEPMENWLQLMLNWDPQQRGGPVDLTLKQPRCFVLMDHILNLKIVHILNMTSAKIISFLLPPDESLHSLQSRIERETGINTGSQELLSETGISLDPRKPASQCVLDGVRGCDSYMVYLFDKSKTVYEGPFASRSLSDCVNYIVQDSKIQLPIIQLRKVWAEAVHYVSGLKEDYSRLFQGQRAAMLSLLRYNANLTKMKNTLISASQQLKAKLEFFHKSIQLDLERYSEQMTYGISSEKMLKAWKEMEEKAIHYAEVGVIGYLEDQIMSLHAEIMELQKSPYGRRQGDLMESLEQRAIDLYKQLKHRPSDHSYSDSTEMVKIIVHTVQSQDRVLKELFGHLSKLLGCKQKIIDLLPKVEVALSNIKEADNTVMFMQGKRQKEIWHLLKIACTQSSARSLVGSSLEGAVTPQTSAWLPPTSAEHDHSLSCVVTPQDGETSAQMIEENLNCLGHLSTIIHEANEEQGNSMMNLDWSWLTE

[9] = biological target: Cyclin-dependent kinase 16 (Homo sapiens) (UniProt Q00536); experiment: Selectivity interaction (ActivX KiNativ screen (kinase selectivity in THP-1 cell lysates)) EUB0000639a CDK16; type: subcellular; settings: lysate, at 0.2 µM
[10] = biological target: Phosphorylase b kinase gamma catalytic chain, skeletal muscle/heart isoform (Homo sapiens) (UniProt Q16816); experiment: Selectivity interaction (Ambit KINOMEscan and KiNATiv profiling in Jurkat cells) EUB0000090b PHKG1; type: cell-based; settings: at 1 µM
Phosphorylase b kinase gamma catalytic chain, skeletal muscle/heart isoform (Homo sapiens), sequence (Q16816 whole entry, looked up, canonical isoform): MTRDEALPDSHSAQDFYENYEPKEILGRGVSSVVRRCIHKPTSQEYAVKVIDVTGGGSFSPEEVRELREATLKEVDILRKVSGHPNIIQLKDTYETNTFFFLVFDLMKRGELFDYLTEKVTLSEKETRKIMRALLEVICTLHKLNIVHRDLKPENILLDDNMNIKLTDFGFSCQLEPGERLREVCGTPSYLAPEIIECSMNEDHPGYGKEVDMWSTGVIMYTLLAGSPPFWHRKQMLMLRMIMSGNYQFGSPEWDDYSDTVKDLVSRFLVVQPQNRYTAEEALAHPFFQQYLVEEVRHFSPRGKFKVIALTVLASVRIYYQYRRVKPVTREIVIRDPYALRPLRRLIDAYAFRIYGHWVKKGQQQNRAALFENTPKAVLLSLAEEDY

Ribosomal protein S6 kinase alpha-1, sequence (Q15418 whole entry): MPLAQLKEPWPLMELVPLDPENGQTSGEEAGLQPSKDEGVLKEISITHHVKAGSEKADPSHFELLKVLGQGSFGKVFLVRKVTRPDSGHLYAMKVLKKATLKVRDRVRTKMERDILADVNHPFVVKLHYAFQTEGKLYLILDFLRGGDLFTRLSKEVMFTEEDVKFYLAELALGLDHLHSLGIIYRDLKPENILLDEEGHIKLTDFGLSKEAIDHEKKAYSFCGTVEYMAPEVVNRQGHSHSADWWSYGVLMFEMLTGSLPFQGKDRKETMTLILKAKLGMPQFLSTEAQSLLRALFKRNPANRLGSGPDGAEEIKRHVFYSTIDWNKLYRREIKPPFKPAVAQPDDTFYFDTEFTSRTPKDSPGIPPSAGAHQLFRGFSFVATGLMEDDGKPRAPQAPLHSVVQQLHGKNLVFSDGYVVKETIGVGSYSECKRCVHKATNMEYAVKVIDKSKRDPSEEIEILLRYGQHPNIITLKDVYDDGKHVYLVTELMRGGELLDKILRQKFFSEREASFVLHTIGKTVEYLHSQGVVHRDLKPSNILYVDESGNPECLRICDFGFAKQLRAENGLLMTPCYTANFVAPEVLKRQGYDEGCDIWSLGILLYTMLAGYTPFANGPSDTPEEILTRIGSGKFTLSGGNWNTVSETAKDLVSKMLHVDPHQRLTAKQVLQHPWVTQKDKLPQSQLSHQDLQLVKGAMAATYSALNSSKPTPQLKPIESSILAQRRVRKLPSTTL
Tyrosine-protein kinase Blk (Homo sapiens), sequence (P51451 2-505 limits assumed): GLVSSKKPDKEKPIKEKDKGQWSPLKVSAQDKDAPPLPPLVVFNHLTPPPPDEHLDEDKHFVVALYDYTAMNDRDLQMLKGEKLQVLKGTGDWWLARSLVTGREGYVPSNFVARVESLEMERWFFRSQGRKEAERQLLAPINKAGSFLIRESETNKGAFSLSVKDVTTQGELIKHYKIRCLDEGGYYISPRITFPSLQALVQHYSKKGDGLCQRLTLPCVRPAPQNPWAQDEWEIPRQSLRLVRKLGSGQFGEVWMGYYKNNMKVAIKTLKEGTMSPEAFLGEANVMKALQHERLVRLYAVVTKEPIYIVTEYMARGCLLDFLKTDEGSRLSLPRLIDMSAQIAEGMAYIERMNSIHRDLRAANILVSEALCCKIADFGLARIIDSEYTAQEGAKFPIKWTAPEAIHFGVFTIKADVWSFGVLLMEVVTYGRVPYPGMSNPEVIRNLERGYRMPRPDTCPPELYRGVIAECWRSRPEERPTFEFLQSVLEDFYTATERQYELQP
Ribosomal protein S6 kinase alpha-4 (Homo sapiens), sequence (O75676 whole entry, looked up): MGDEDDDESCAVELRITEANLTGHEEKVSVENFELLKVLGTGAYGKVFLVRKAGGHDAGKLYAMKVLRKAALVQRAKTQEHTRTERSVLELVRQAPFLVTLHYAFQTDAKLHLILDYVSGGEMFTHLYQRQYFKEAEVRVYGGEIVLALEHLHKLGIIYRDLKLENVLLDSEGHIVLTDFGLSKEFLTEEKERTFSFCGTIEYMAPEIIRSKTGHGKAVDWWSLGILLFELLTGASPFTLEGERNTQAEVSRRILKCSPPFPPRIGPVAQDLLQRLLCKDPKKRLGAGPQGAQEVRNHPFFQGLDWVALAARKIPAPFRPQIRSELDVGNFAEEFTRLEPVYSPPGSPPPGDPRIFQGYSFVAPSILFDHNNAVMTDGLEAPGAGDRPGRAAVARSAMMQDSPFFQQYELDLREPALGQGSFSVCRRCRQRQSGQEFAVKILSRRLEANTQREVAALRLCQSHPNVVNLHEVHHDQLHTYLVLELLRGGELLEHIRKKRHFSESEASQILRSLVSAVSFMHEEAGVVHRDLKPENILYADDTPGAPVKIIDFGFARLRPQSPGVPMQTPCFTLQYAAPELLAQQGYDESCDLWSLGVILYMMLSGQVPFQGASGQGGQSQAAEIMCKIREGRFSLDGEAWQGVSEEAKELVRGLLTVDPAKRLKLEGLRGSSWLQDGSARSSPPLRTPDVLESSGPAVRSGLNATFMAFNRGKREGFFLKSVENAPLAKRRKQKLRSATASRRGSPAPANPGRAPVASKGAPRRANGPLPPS
Cyclin-dependent kinase 16 (Homo sapiens), sequence (Q00536 whole entry, canonical isoform): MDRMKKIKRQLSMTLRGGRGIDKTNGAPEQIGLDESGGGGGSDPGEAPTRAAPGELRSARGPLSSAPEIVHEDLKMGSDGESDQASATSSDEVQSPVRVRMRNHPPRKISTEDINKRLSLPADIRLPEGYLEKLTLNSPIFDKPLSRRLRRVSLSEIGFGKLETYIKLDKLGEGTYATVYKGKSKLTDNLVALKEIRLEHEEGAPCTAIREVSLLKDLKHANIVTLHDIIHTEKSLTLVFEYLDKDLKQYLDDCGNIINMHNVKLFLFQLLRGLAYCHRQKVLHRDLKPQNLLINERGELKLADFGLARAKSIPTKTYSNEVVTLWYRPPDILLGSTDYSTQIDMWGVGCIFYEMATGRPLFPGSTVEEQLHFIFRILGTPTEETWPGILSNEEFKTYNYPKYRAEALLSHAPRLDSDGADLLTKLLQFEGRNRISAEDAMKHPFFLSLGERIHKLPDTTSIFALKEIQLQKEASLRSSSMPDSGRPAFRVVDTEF
5-hydroxytryptamine receptor 2B, sequence (P41595 whole entry): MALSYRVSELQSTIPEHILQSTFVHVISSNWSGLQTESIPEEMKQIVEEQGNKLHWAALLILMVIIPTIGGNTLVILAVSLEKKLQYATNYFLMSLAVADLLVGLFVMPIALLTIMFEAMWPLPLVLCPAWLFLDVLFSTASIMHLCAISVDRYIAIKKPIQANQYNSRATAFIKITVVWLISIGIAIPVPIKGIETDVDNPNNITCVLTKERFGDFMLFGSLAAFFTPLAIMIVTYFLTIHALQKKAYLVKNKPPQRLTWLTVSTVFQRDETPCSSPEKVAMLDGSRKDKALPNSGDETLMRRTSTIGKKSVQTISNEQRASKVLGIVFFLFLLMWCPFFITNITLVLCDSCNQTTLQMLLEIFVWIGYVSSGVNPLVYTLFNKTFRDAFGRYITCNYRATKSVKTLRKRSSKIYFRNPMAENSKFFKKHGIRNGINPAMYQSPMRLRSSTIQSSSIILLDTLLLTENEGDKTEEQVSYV

C=CC(=O)Nc1cc(-n2c(=O)ccc3cnc4ccc(-c5ccc(NS(C)(=O)=O)cc5)cc4c32)ccc1C
% of control [1]: 91%

O=C(NOC[C@H](O)CO)c1ccc(F)c(F)c1Nc1ccc(I)cc1F
% of control [2]: 100%

CC(=O)c1cc(-c2ccccc2OCC2CC2)c2ncccn12
% of control [3]: 112%

CN(C)C(=O)Cn1cc(-c2ccc(-c3cncc4ccccc34)cc2)cn1
% of control [4]: 34%

COc1cc(Nc2nc(C)cc(-c3cnn4nc(OC)ccc34)n2)cc(C(F)(F)F)c1
% of control [5]: 100%

CC(=O)Nc1cccc(-n2c(=O)n(C3CC3)c(=O)c3c(Nc4ccc(I)cc4F)n(C)c(=O)c(C)c32)c1
% of control [6]: 83%

CCc1cc(Nc2nccc(-c3c(-c4ccc(OC)c(C(=O)Nc5c(F)cccc5F)c4)nc4ccccn34)n2)c(OC)cc1N1CCC(N2CCN(S(C)(=O)=O)CC2)CC1
% of inhibition [7]: 55%

CNC(=O)Nc1ccc(-c2nc(N3CC4CCC(C3)O4)c3cnn(C4CCC5(CC4)OCCO5)c3n2)cc1
% of control [8]: 100%

CC[C@@H]1[C@H](F)C(=O)N[C@@H]1COc1nccc2cc(C(N)=O)c(OC)cc12 [ZIMLOVISERTIB]
% of inhibition [9]: -0.8%

CN(C)C/C=C/C(=O)Nc1ccc(C(=O)N2CCCC(Nc3ncc(Cl)c(-c4c[nH]c5ccccc45)n3)C2)cc1 (stereo not given)
% of control [10]: 87%
